According to patent US11970463B2, “Compounds and their use” (ASTRAZENECA AB, priority 2021, dated 2024):
Converted amounts (≈) assume the structure as drawn. Read-outs that look alike come from different tables or passages of the source.

What was measured:
Solubility (Test E) = assay type: physicochemical
Human NLRP3 [1] = target: T1, Human NLRP3 (Homo sapiens (Human), UniProt Q96P20)
[2] = Solubility (Test F), McIlvaine buffer pH 6.5; assay type: physicochemical; conditions: McIlvaine buffer pH 6.5, 25° C., 24 to 72 h, theoretical maximum 200 μM; for solubility: disodium hydrogenphosphate-citric acid (McIlvaine) buffer, 25 °C, pH 6.5, aqueous buffer, thermodynamic from solid
Human NLRP3 [3] = target: T1, Human NLRP3; assay: Human NLRP3 speck formation assay (Test A), nigericin triggered ASC-speck formation in ASC-GFP reporter monocytes
[4] = Test C IC50, IL-1β release, THP-1 cells, LPS 2 μg/mL 24 h, BzATP 1 mM

T1 sequence (Q96P20 whole entry): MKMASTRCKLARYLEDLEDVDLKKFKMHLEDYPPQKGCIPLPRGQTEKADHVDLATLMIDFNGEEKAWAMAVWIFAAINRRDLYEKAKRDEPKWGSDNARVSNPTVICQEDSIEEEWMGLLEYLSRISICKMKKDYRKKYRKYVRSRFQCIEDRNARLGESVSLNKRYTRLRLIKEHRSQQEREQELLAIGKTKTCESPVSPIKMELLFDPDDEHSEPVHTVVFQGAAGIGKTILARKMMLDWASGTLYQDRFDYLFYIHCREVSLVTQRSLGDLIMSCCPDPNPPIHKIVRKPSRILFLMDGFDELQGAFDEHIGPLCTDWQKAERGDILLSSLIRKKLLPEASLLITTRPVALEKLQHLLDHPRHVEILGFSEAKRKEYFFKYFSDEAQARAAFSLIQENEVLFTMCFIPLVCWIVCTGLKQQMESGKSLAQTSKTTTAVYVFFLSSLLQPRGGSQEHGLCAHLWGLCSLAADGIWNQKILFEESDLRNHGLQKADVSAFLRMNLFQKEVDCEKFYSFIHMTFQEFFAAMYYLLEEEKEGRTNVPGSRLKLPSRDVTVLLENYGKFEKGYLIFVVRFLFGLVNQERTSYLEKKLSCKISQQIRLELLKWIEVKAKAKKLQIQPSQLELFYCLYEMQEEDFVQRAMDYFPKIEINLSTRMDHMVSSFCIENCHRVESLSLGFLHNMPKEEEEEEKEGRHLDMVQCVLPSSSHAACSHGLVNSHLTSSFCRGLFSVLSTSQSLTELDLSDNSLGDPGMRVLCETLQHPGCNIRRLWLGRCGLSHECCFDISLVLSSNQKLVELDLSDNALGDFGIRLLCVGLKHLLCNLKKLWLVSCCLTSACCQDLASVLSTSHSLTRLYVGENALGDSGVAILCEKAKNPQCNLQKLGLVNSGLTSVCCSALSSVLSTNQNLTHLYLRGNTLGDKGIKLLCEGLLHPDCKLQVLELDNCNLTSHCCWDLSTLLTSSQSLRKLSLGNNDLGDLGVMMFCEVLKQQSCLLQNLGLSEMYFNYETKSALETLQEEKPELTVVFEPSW

| SMILES | IC50 (Human NLRP3 [1]; [4]) [nM] | solubility [2] [µg/mL] | further results |
| --- | --- | --- | --- |
| Oc1cccc(C(F)(F)F)c1-c1nnc(N[C@@H]2CCC[C@H](O)C2)c2cnccc12 (racemic) [Example 50, 2-[4-[[(1R,3S)-3-hydroxycyclohexyl]amino]pyrido[3,4-d]pyridazin-1-yl]-3-(trifluoromethyl)phenol] | – | – | Test F Solubility [2]: >80.9 µg/mL |
| Oc1cc(C(F)(F)F)ccc1-c1nnc(N[C@H]2CCC[C@H](O)C2)c2ccccc12 (single isomer, unassigned) [Example 29] | – | – | Test F Solubility [2]: 16.1 µg/mL |
| Oc1cccc(C(F)(F)F)c1-c1nnc(N[C@@H]2CCC[C@H](O)C2)c2cnccc12 (single isomer, unassigned) [Example 49] | 405 | > 80.9 | – |
| OC[C@@H](O)CNc1nnc(-c2ccc(Cl)c(F)c2O)c2ccccc12 [Example 2, (2S)-3-[[4-(4-chloro-3-fluoro-2-hydroxy-phenyl)phthalazin-1-yl]amino]propane-1,2-diol] | 165 | 24.6 (≈ 67.6 µM) | – |
| OC[C@@H](O)CNc1nnc(-c2cc(F)c(F)cc2O)c2ccccc12 [Example 3, (2S)-3-[[4-(4,5-difluoro-2-hydroxy-phenyl)phthalazin-1-yl]amino]propane-1,2-diol] | 474 | 68.6 (≈ 198 µM) | – |
| OC[C@H](O)CNc1nnc(-c2ccc(C(F)(F)F)cc2O)c2ccccc12 [Example 12, (2R)-3-[[4-[2-hydroxy-4-(trifluoromethyl)phenyl]phthalazin-1-yl]amino]propane-1,2-diol] | – | 36.4 (≈ 96 µM) | – |
| Cc1ccc(O)c(-c2nnc(NC[C@H](O)CO)c3ccccc23)c1 [Example 13, (2S)-3-[[4-(2-hydroxy-5-methyl-phenyl)phthalazin-1-yl]amino]propane-1,2-diol] | > 10000 | > 65.1 | – |
| C[C@]1(O)C[C@@H](Nc2nnc(-c3c(O)cccc3F)c3ccccc23)C1 [Example 36, 3-fluoro-2-(4-(((1s,3s)-3-hydroxy-3-methylcyclobutyl)amino)phthalazin-1-yl)phenol] | – | 43 (≈ 127 µM) | IC50 (Human NLRP3 [1]): 976 nM |
| Oc1cc(C(F)(F)F)ccc1-c1nnc(N[C@@H]2CCC[C@H](O)C2)c2ccncc12 [Example 43, 2-[1-[[(1R,3S)-3-hydroxycyclohexyl]amino]pyrido[3,4-d]pyridazin-4-yl]-5-(trifluoromethyl)phenol] | – | 37.3 (≈ 92.2 µM) | – |
| Oc1cccc(F)c1-c1nnc(N[C@@H]2CCC[C@H](O)C2)c2cnccc12 [Example 47, 3-fluoro-2-[4-[[(1R,3S)-3-hydroxycyclohexyl]amino]pyrido[3,4-d]pyridazin-1-yl]phenol] | 68 | > 70.9 | – |
| CCc1ccc(-c2nnc(N[C@@H]3CCC[C@H](O)C3)c3cnccc23)c(O)c1 [Example 51, 5-ethyl-2-[4-[[(1R,3S)-3-hydroxycyclohexyl]amino]pyrido[3,4-d]pyridazin-1-yl]phenol] | 4 | > 72.9 | – |
| C[C@]1(O)C[C@@H](Nc2nnc(-c3ccc(OC(F)(F)F)cc3O)c3ccncc23)C1 [Example 63, 2-(4-(((1s,3s)-3-hydroxy-3-methylcyclobutyl)amino)pyrido[3,4-d]pyridazin-1-yl)-5-(trifluoromethoxy)phenol] | – | 0.8 (≈ 1.97 µM) | IC50 (Human NLRP3 [1]): 8 nM |
| C[C@]1(O)C[C@@H](Nc2nnc(-c3cc(F)c(F)cc3O)c3ccncc23)C1 [Example 66, 4,5-difluoro-2-(4-(((1s,3s)-3-hydroxy-3-methylcyclobutyl)amino)pyrido[3,4-d]pyridazin-1-yl)phenol] | – | 3.6 (≈ 10 µM) | IC50 (Human NLRP3 [1]): 570 nM |
| C[C@]1(O)C[C@@H](Nc2nnc(-c3ccc(Cl)cc3O)c3ccncc23)C1 [Example 68, 5-chloro-2-(4-(((1s,3s)-3-hydroxy-3-methylcyclobutyl)amino)pyrido[3,4-d]pyridazin-1-yl)phenol] | – | – | solubility (Solubility (Test E)): 44 µM (≈ 15.7 µg/mL); IC50 (Human NLRP3 [1]): 2 nM; EC50 (Human NLRP3 [3]): 19 nM |
| CC(C)(O)CNc1nnc(-c2ccc(OC(F)(F)F)cc2O)c2ccncc12 [Example 72, 2-[4-[(2-hydroxy-2-methyl-propyl)amino]pyrido[3,4-d]pyridazin-1-yl]-5-(trifluoromethoxy)phenol] | 22 | 5.8 (≈ 14.7 µM) | – |
| Oc1cccc(F)c1-c1nnc(N[C@@H]2CCCC[C@H]2O)c2ccncc12 [Example 77, 3-fluoro-2-(1-(((1R,2R)-2-hydroxycyclohexyl)amino)pyrido[3,4-d]pyridazin-4-yl)phenol] | – | – | EC50 (Human NLRP3 [3]): 2930 nM |
| Oc1cc(F)ccc1-c1nnc(N[C@@H]2CCCC[C@H]2O)c2ccncc12 [Example 78, 5-fluoro-2-(1-(((1R,2R)-2-hydroxycyclohexyl)amino)pyrido[3,4-d]pyridazin-4-yl)phenol] | – | – | solubility (Solubility (Test E)): 958 µM (≈ 340 µg/mL); EC50 (Human NLRP3 [3]): 1140 nM |
| Oc1cc(C(F)(F)F)ccc1-c1nnc(N[C@H]2CCC[C@@H](O)C2)c2cnccc12 [Example 82, 2-[4-[[(1S,3R)-3-hydroxycyclohexyl]amino]pyrido[3,4-d]pyridazin-1-yl]-5-(trifluoromethyl)phenol] | – | 9.4 (≈ 23.2 µM) | solubility (Solubility (Test E)): 34 µM (≈ 13.7 µg/mL) |
| Oc1cc(F)ccc1-c1nnc(N[C@@H]2CC[C@@H](O)C2)c2cnccc12 [Example 85, 5-fluoro-2-(4-(((1R,3R)-3-hydroxycyclopentyl)amino)pyrido[3,4-d]pyridazin-1-yl)phenol] | – | – | solubility (Solubility (Test E)): 68 µM (≈ 23.1 µg/mL); EC50 (Human NLRP3 [3]): 481 nM |
| Oc1cccc(F)c1-c1nnc(N[C@@H]2CC[C@@H](O)C2)c2ccncc12 [Example 86, 3-fluoro-2-(1-(((1R,3R)-3-hydroxycyclopentyl)amino)pyrido[3,4-d]pyridazin-4-yl)phenol] | – | – | EC50 (Human NLRP3 [3]): 6150 nM |
| Oc1cccc(F)c1-c1nnc(N[C@@H]2CC[C@H](O)C2)c2ccncc12 [Example 87, 3-fluoro-2-(1-(((1R,3S)-3-hydroxycyclopentyl)amino)pyrido[3,4-d]pyridazin-4-yl)phenol] | – | – | solubility (Solubility (Test E)): 25 µM (≈ 8.51 µg/mL); EC50 (Human NLRP3 [3]): 6150 nM |
| OC[C@@H](O)CNc1nnc(-c2ccc(C(F)(F)F)cc2O)c2ccncc12 [Example 88, (2S)-3-[[1-[2-hydroxy-4-(trifluoromethyl)phenyl]pyrido[3,4-d]pyridazin-4-yl]amino]propane-1,2-diol] | – | > 76.1 | – |
| C[C@]1(O)C[C@@H](Nc2nnc(-c3c(O)cccc3F)c3cccnc23)C1 [Example 90, 3-fluoro-2-(8-(((1s,3s)-3-hydroxy-3-methylcyclobutyl)amino)pyrido[2,3-d]pyridazin-5-yl)phenol] | – | > 68.1 | IC50 (Human NLRP3 [1]): 551 nM |
| Cc1ccc2c(-c3ccc(C(F)(F)F)cc3O)nnc(N[C@@H]3CCC[C@H](O)C3)c2n1 [Example 91, 2-[8-[[(1R,3S)-3-hydroxycyclohexyl]amino]-2-methyl-pyrido[2,3-d]pyridazin-5-yl]-5-(trifluoromethyl)phenol] | 10 | 0.5 (≈ 1.19 µM) | – |

Continued, in another order:

| IC50 (Human NLRP3 [1]; [4]) [nM] | solubility [2] [µg/mL] | SMILES | further results |
| --- | --- | --- | --- |
| 34 | 2.1 (≈ 5.03 µM) | Oc1cc(C(F)(F)F)ccc1-c1nnc(N[C@@H]2CCCCC[C@H]2O)c2ccccc12 (racemic) [Example 27, rac-(1R,2R)-2-[[4-[2-hydroxy-4-(trifluoromethyl)phenyl]phthalazin-1-yl]amino]cycloheptanol] | solubility (Solubility (Test E)): 9 µM (≈ 3.76 µg/mL); EC50 (Human NLRP3 [3]): 562 nM |
| 18 | 9.3 (≈ 23.9 µM) | Oc1cc(C(F)(F)F)ccc1-c1nnc(N[C@H]2CC[C@@H](O)C2)c2ccccc12 (single isomer, unassigned) [Example 34] | – |
| 47 | – | Oc1cccc(C(F)(F)F)c1-c1nnc(N[C@@H]2CCC[C@H](O)C2)c2cnccc12 (single isomer, unassigned) [Example 50] | – |
| – | 50 (≈ 132 µM) | OC[C@@H](O)CNc1nnc(-c2ccc(C(F)(F)F)cc2O)c2ccccc12 [Example 1, (2S)-3-[[4-[2-hydroxy-4-(trifluoromethyl)phenyl]phthalazin-1-yl]amino]propane-1,2-diol] | – |
| > 1000 | 23.2 (≈ 70.4 µM) | OC[C@@H](O)CNc1nnc(-c2c(O)cccc2F)c2ccccc12 [Example 4, (2S)-3-[[4-(2-fluoro-6-hydroxy-phenyl)phthalazin-1-yl]amino]propane-1,2-diol] | – |
| 159 | 11.8 (≈ 34 µM) | OC[C@@H](O)CNc1nnc(-c2c(O)cc(F)cc2F)c2ccccc12 [Example 8, (2S)-3-[[4-(2,4-difluoro-6-hydroxy-phenyl)phthalazin-1-yl]amino]propane-1,2-diol] | – |
| 434 | 62.9 (≈ 182 µM) | OC[C@@H](O)CNc1nnc(-c2c(O)cccc2Cl)c2ccccc12 [Example 10, (2S)-3-[[4-(2-chloro-6-hydroxy-phenyl)phthalazin-1-yl]amino]propane-1,2-diol] | – |
| 738 | > 79.9 | CS(=O)(=O)c1ccc(-c2nnc(N[C@@H]3CC[C@@H](O)C3)c3ccccc23)c(O)c1 [Example 18, 2-[4-[[(1R,3R)-3-hydroxycyclopentyl]amino]phthalazin-1-yl]-5-methylsulfonyl-phenol] | – |
| – | > 68.1 | C[C@]1(O)C[C@@H](Nc2nnc(-c3c(O)cccc3F)c3ccncc23)C1 [Example 64, 3-fluoro-2-(4-(((1s,3s)-3-hydroxy-3-methylcyclobutyl)amino)pyrido[3,4-d]pyridazin-1-yl)phenol] | IC50 (Human NLRP3 [1]): 111 nM |
| 14 | 21.9 (≈ 63.5 µM) | CC(C)(O)CNc1nnc(-c2ccc(Cl)cc2O)c2ccncc12 [Example 71, 5-chloro-2-[4-[(2-hydroxy-2-methyl-propyl)amino]pyrido[3,4-d]pyridazin-1-yl]phenol] | – |
| – | 22.1 (≈ 54.6 µM) | Oc1cc(C(F)(F)F)ccc1-c1nnc(N[C@@H]2CCC[C@H](O)C2)c2ncccc12 [Example 89, 2-[8-[[(1R,3S)-3-hydroxycyclohexyl]amino]pyrido[2,3-d]pyridazin-5-yl]-5-(trifluoromethyl)phenol] | – |
